Type in all cases: cell-based
Experiment [1] relates to SNU-16 (FGFR2-amplification) cells. Nature of the experiment: Cell proliferation assay (CellTiterGlo), SNU-16 cells. Conditions: Homo sapiens, SNU-16, 72 h, inhibition of cell growth, intracellular ATP (CellTiterGlo). The source says: (§1) The following is a non-limiting example that describes a cell proliferation assay used to determine the biological activity of the compounds of the present disclosure. More specifically, the assay as used to assess the ability of the compounds to inhibit cell proliferation.
(§2) Briefly, SNU-16 (FGFR2-amplification) cells, were resuspended at 18,520c/ml mL in RPMI containing 10% Heat Inactivated FBS, 1% L-glutamine and dispensed in duplicate (463c/well) into 384 well plates. UM-UC-14 (FGFR3-S249C) cells were resuspended at 40.000c/ml mL in RPMI containing 10% Heat Inactivated FBS, 1% L-glutamine and dispensed in duplicate (1000c/well) into 384 well plates. DMS-114 (FGFR1 overexpression) cells and were resuspended at 40,000c/ml mL in RPMI containing 10% Heat Inactivated FBS, 1% L-glutamine and dispensed in duplicate (1000c/well) into 384 well plates. RT-112 (FGFR3-Tacc3 fusion) cells were resuspended at 40,000c/ml mL in RPMI containing 10% Heat Inactivated FBS, 1% L-glutamine and dispensed in duplicate (1000c/well) into 384 well plates. To determine the effect of the compounds of the present disclosure on cell proliferation, SNU-16, UM-UC-14, DMS-114 and RT112 cells were incubated for 72 hours in the presence of vehicle control (DMSO) or a compound of the present disclosure at varying concentrations. Inhibition of cell growth was subsequently determined by luminescent quantification (Envision by Perkin Elmer) of intracellular ATP content using CellTiterGlo (Promega), according to the protocol provided by the manufacturer. To determine the IC50 values, the vehicle-treated cells were normalized as viable cells and analyzed using the CDD Vault software (Collaborative Drug Discovery, Burlingame, CA).
Background: ATP-based viability assays read luminescence as a measure of living cells.

The test system of experiment [2] is RT-112 (FGFR3-Tacc3 fusion) cells. Nature of the experiment: Cell proliferation assay (CellTiterGlo), RT-112 cells. Particulars: Homo sapiens, RT-112, 72 h, RT112 cells, inhibition of cell growth, intracellular ATP (CellTiterGlo).
Excerpt: as §1, §2

Experiment [3] has as its system DMS-114 (FGFR1 overexpression) cells. The experiment can be described thus: Cell proliferation assay (CellTiterGlo), DMS-114 cells. Conditions: Homo sapiens, 72 hours, inhibition of cell growth, intracellular ATP (CellTiterGlo).
Excerpt: as §1, §2

Experiment [4] has as its system UM-UC-14 (FGFR3-S249C) cells. The experiment can be described thus: Cell proliferation assay (CellTiterGlo), UM-UC-14 cells. Conditions: UMUC14, 72 h, inhibition of cell growth, intracellular ATP (CellTiterGlo).
Excerpt: as §1, §2

pIC50: −log10 of the molar value.

For the compound `Cc1nc2ccc(Oc3ccc4ncc(-c5cnn(CC6CC(C)N(C)C(C)C6)c5)nc4c3Cl)cc2[nH]1` (stereo not shown) [Compound 5], the pIC50 (commonly the IC50 on a negative log10 scale, so that one unit is a factor of ten) in experiment [1] is 7.00 to 7.70; in experiment [2], 7.00 to 7.70; in experiment [3], at most 6.40; in experiment [4], 7.00 to 7.70.

For the compound `Cc1nc2ccc(Oc3ccc4ncc(-c5cnn(CC6CCN(S(C)(=O)=O)CC6)c5)nc4c3Cl)cc2[nH]1` [Compound 43], the negative-log IC50 (pIC50) in experiment [1] is 7.00 to 7.70; in experiment [2], 7.00 to 7.70; in experiment [3], at most 6.40; in experiment [4], 7.00 to 7.70.

For `C=CC(=O)N1CCC(CCn2cc(-c3cnc4ccc(Oc5ccc6nc(C)[nH]c6c5)c(Cl)c4n3)cn2)CC1` [Compound 39], the negative-log IC50 (pIC50) is 7.00 to 7.70 in experiment [1], 7.00 to 7.70 in experiment [2], 6.40 to 7.00 in experiment [3] and 7.00 to 7.70 in experiment [4].

Take `Cc1nc2ccc(Oc3ccc4ncc(-c5cnn(CC6CCN(C(C)C)CC6)c5)nc4c3Cl)cc2[nH]1` [Compound 24]: the pIC50 in experiment [1] is above 7.70; in experiment [2] it was above 7.70; in experiment [3], 6.40 to 7.00; in experiment [4] it was above 7.70.

Turning to `Cc1nc2ccc(Oc3ccc4ncc(-c5cnn(CC6CCN(C)C6)c5)nc4c3Cl)cc2[nH]1` (stereo not shown) [Compound 4], the pIC50 in experiment [1] is 7.00 to 7.70; in experiment [2], 7.00 to 7.70; in experiment [3], 6.40 to 7.00; in experiment [4], 7.00 to 7.70.

Consider `COc1cc(Oc2ccc3ncc(-c4cnn(CC5CCOCC5)c4)nc3c2)cc2[nH]c(C)nc12` [Compound 61], for which the pIC50 in experiment [1], in experiment [2], in experiment [3] and in experiment [4] was at most 6.40 throughout.

As for `Cc1nc2ccc(Oc3ccc4ncc(-c5cnn(CC6(O)CC6)c5)nc4c3Cl)cc2[nH]1` [Compound 67], the pIC50 was 7.00 to 7.70 in experiment [1], 7.00 to 7.70 in experiment [2], at most 6.40 in experiment [3] and 7.00 to 7.70 in experiment [4].

`Cc1nc2ccc(Oc3ccc4ncc(-c5cnn(CC6CCN(S(=O)(=O)C(C)C)CC6)c5)nc4c3Cl)cc2[nH]1` [Compound 40]: the pIC50 in experiment [1] is 7.00 to 7.70; in experiment [2] it was 7.00 to 7.70; in experiment [3], at most 6.40; in experiment [4] it was 7.00 to 7.70.

As for `Cc1nc2ccc(Oc3ccc4ncc(-c5cnn(CC6CCN(C)CC6)c5)nc4c3C)cc2[nH]1` [Compound 45], the pIC50 was 7.00 to 7.70 in experiment [1], 7.00 to 7.70 in experiment [2], 6.40 to 7.00 in experiment [3] and 7.00 to 7.70 in experiment [4].

For the compound `Cc1nc2ccc(Oc3ccc4ncc(-c5cnn(CC(O)CO)c5)nc4c3Cl)cc2[nH]1` (stereo not shown) [Compound 22], the pIC50 in experiment [1] is 7.00 to 7.70; in experiment [2], 7.00 to 7.70; in experiment [3], at most 6.40; in experiment [4], 6.40 to 7.00.

The record behind these values is patent publication US20240368181A1, “QUINOXALINE DERIVATIVES AND USES THEREOF” (Black Diamond Therapeutics, Inc., priority 2021, published 2024).
